Numbers after ± are expanded uncertainties.
Assay: molar heat capacity at constant pressure
Conditions: 101.33 kPa

With `CCCCc1ccc(C(=O)Oc2ccc(C#N)c(F)c2)cc1` [4-cyano-3-fluorophenyl 4-butylbenzoate] the “molar heat capacity at constant pressure” value (61.92 K, Crystal 1, Small (less than 1 g) adiabatic calorimetry) was 106.31 ± 0.83 J/K/mol, the “molar heat capacity at constant pressure” value (63.2 K, Crystal 1, Small (less than 1 g) adiabatic calorimetry) was 108.1 ± 0.85 J/K/mol and the “molar heat capacity at constant pressure” value (63.41 K, Crystal 1, Small (less than 1 g) adiabatic calorimetry) was 108.62 ± 0.85 J/K/mol. The “molar heat capacity at constant pressure” value (63.57 K, Crystal 2, Small (less than 1 g) adiabatic calorimetry) was 113.15 ± 0.88 J/K/mol, the “molar heat capacity at constant pressure” value (64.91 K, Crystal 1, Small (less than 1 g) adiabatic calorimetry) was 110.74 ± 0.86 J/K/mol and the “molar heat capacity at constant pressure” value (65.24 K, Crystal 2, Small (less than 1 g) adiabatic calorimetry) was 115.68 ± 0.89 J/K/mol. For the same compound, the “molar heat capacity at constant pressure” value (65.3 K, Crystal 1, Small (less than 1 g) adiabatic calorimetry) was 111.15 ± 0.86 J/K/mol, the “molar heat capacity at constant pressure” value (66.41 K, Crystal 1, Small (less than 1 g) adiabatic calorimetry) was 112.9 ± 0.87 J/K/mol and the “molar heat capacity at constant pressure” value (66.93 K, Crystal 2, Small (less than 1 g) adiabatic calorimetry) was 118.1 ± 0.91 J/K/mol. For the same compound, the “molar heat capacity at constant pressure” value (67.38 K, Crystal 1, Small (less than 1 g) adiabatic calorimetry) was 114.12 ± 0.88 J/K/mol, the “molar heat capacity at constant pressure” value (67.91 K, Crystal 1, Small (less than 1 g) adiabatic calorimetry) was 115.02 ± 0.89 J/K/mol and the “molar heat capacity at constant pressure” value (68.62 K, Crystal 2, Small (less than 1 g) adiabatic calorimetry) was 120.58 ± 0.92 J/K/mol. The “molar heat capacity at constant pressure” value (69.41 K, Crystal 1, Small (less than 1 g) adiabatic calorimetry) was 117.19 ± 0.9 J/K/mol, the “molar heat capacity at constant pressure” value (69.46 K, Crystal 1, Small (less than 1 g) adiabatic calorimetry) was 117 ± 0.9 J/K/mol and the “molar heat capacity at constant pressure” value (70 K, Crystal 1, Vacuum adiabatic calorimetry) was 117.76 ± 0.78 J/K/mol. For the same compound, the “molar heat capacity at constant pressure” value (70 K, Crystal 2, Vacuum adiabatic calorimetry) was 122.57 ± 0.81 J/K/mol, the “molar heat capacity at constant pressure” value (70.32 K, Crystal 2, Small (less than 1 g) adiabatic calorimetry) was 123.03 ± 0.94 J/K/mol and the “molar heat capacity at constant pressure” value (70.92 K, Crystal 1, Small (less than 1 g) adiabatic calorimetry) was 119.27 ± 0.91 J/K/mol. The “molar heat capacity at constant pressure” value (71.53 K, Crystal 1, Small (less than 1 g) adiabatic calorimetry) was 119.9 ± 0.91 J/K/mol, the “molar heat capacity at constant pressure” value (72.11 K, Crystal 2, Small (less than 1 g) adiabatic calorimetry) was 125.5 ± 0.95 J/K/mol and the “molar heat capacity at constant pressure” value (72.44 K, Crystal 1, Small (less than 1 g) adiabatic calorimetry) was 121.32 ± 0.92 J/K/mol. The “molar heat capacity at constant pressure” value (73.59 K, Crystal 1, Small (less than 1 g) adiabatic calorimetry) was 122.75 ± 0.93 J/K/mol, the “molar heat capacity at constant pressure” value (73.96 K, Crystal 1, Small (less than 1 g) adiabatic calorimetry) was 123.47 ± 0.94 J/K/mol and the “molar heat capacity at constant pressure” value (74.05 K, Crystal 2, Small (less than 1 g) adiabatic calorimetry) was 128.27 ± 0.97 J/K/mol. For the same compound, the “molar heat capacity at constant pressure” value (75.49 K, Crystal 1, Small (less than 1 g) adiabatic calorimetry) was 125.48 ± 0.95 J/K/mol, the “molar heat capacity at constant pressure” value (75.66 K, Crystal 1, Small (less than 1 g) adiabatic calorimetry) was 125.55 ± 0.95 J/K/mol and the “molar heat capacity at constant pressure” value (76.08 K, Crystal 2, Small (less than 1 g) adiabatic calorimetry) was 131.11 ± 0.99 J/K/mol. For the same compound, the “molar heat capacity at constant pressure” value (77.02 K, Crystal 1, Small (less than 1 g) adiabatic calorimetry) was 127.52 ± 0.96 J/K/mol, the “molar heat capacity at constant pressure” value (77.72 K, Crystal 1, Small (less than 1 g) adiabatic calorimetry) was 128.25 ± 0.97 J/K/mol and the “molar heat capacity at constant pressure” value (78.1 K, Crystal 2, Small (less than 1 g) adiabatic calorimetry) was 133.74 ± 1 J/K/mol. For the same compound, the “molar heat capacity at constant pressure” value (78.56 K, Crystal 1, Small (less than 1 g) adiabatic calorimetry) was 129.55 ± 0.97 J/K/mol, the “molar heat capacity at constant pressure” value (79.79 K, Crystal 1, Small (less than 1 g) adiabatic calorimetry) was 130.94 ± 0.98 J/K/mol and the “molar heat capacity at constant pressure” value (80 K, Crystal 1, Vacuum adiabatic calorimetry) was 131.22 ± 0.86 J/K/mol. The “molar heat capacity at constant pressure” value (80 K, Crystal 2, Vacuum adiabatic calorimetry) was 136.34 ± 0.89 J/K/mol, the “molar heat capacity at constant pressure” value (80.1 K, Crystal 1, Small (less than 1 g) adiabatic calorimetry) was 131.58 ± 0.99 J/K/mol and the “molar heat capacity at constant pressure” value (80.14 K, Crystal 2, Small (less than 1 g) adiabatic calorimetry) was 136.53 ± 1 J/K/mol. The “molar heat capacity at constant pressure” value (81.65 K, Crystal 1, Small (less than 1 g) adiabatic calorimetry) was 133.56 ± 1 J/K/mol, the “molar heat capacity at constant pressure” value (81.86 K, Crystal 1, Small (less than 1 g) adiabatic calorimetry) was 133.65 ± 1 J/K/mol and the “molar heat capacity at constant pressure” value (82.17 K, Crystal 2, Small (less than 1 g) adiabatic calorimetry) was 139.24 ± 1 J/K/mol. For the same compound, the “molar heat capacity at constant pressure” value (83.21 K, Crystal 1, Small (less than 1 g) adiabatic calorimetry) was 135.55 ± 1 J/K/mol, the “molar heat capacity at constant pressure” value (83.93 K, Crystal 1, Small (less than 1 g) adiabatic calorimetry) was 136.28 ± 1 J/K/mol and the “molar heat capacity at constant pressure” value (84.22 K, Crystal 2, Small (less than 1 g) adiabatic calorimetry) was 141.95 ± 1.1 J/K/mol. For the same compound, the “molar heat capacity at constant pressure” value (84.77 K, Crystal 1, Small (less than 1 g) adiabatic calorimetry) was 137.59 ± 1 J/K/mol, the “molar heat capacity at constant pressure” value (86 K, Crystal 1, Small (less than 1 g) adiabatic calorimetry) was 138.9 ± 1 J/K/mol and the “molar heat capacity at constant pressure” value (86.27 K, Crystal 2, Small (less than 1 g) adiabatic calorimetry) was 144.59 ± 1.1 J/K/mol. For the same compound, the “molar heat capacity at constant pressure” value (86.34 K, Crystal 1, Small (less than 1 g) adiabatic calorimetry) was 139.51 ± 1 J/K/mol, the “molar heat capacity at constant pressure” value (87.92 K, Crystal 1, Small (less than 1 g) adiabatic calorimetry) was 141.49 ± 1.1 J/K/mol and the “molar heat capacity at constant pressure” value (88.19 K, Crystal 1, Small (less than 1 g) adiabatic calorimetry) was 141.58 ± 1.1 J/K/mol. The “molar heat capacity at constant pressure” value (88.32 K, Crystal 2, Small (less than 1 g) adiabatic calorimetry) was 147.21 ± 1.1 J/K/mol, the “molar heat capacity at constant pressure” value (89.5 K, Crystal 1, Small (less than 1 g) adiabatic calorimetry) was 143.41 ± 1.1 J/K/mol and the “molar heat capacity at constant pressure” value (90 K, Crystal 1, Vacuum adiabatic calorimetry) was 143.78 ± 0.93 J/K/mol. For the same compound, the “molar heat capacity at constant pressure” value (90 K, Crystal 2, Vacuum adiabatic calorimetry) was 149.41 ± 0.96 J/K/mol, the “molar heat capacity at constant pressure” value (90.38 K, Crystal 2, Small (less than 1 g) adiabatic calorimetry) was 149.91 ± 1.1 J/K/mol and the “molar heat capacity at constant pressure” value (90.49 K, Crystal 1, Small (less than 1 g) adiabatic calorimetry) was 144.38 ± 1.1 J/K/mol. For the same compound, the “molar heat capacity at constant pressure” value (91.1 K, Crystal 1, Small (less than 1 g) adiabatic calorimetry) was 145.38 ± 1.1 J/K/mol, the “molar heat capacity at constant pressure” value (92.46 K, Crystal 2, Small (less than 1 g) adiabatic calorimetry) was 152.54 ± 1.1 J/K/mol and the “molar heat capacity at constant pressure” value (92.69 K, Crystal 1, Small (less than 1 g) adiabatic calorimetry) was 147.26 ± 1.1 J/K/mol. For the same compound, the “molar heat capacity at constant pressure” value (92.79 K, Crystal 1, Small (less than 1 g) adiabatic calorimetry) was 147.14 ± 1.1 J/K/mol, the “molar heat capacity at constant pressure” value (94.3 K, Crystal 1, Small (less than 1 g) adiabatic calorimetry) was 149.22 ± 1.1 J/K/mol and the “molar heat capacity at constant pressure” value (94.53 K, Crystal 2, Small (less than 1 g) adiabatic calorimetry) was 155.21 ± 1.1 J/K/mol. The “molar heat capacity at constant pressure” value (95.09 K, Crystal 1, Small (less than 1 g) adiabatic calorimetry) was 149.9 ± 1.1 J/K/mol, the “molar heat capacity at constant pressure” value (95.91 K, Crystal 1, Small (less than 1 g) adiabatic calorimetry) was 151.12 ± 1.1 J/K/mol and the “molar heat capacity at constant pressure” value (96.62 K, Crystal 2, Small (less than 1 g) adiabatic calorimetry) was 157.81 ± 1.1 J/K/mol. For the same compound, the “molar heat capacity at constant pressure” value (97.38 K, Crystal 1, Small (less than 1 g) adiabatic calorimetry) was 152.62 ± 1.1 J/K/mol, the “molar heat capacity at constant pressure” value (97.53 K, Crystal 1, Small (less than 1 g) adiabatic calorimetry) was 153.02 ± 1.1 J/K/mol and the “molar heat capacity at constant pressure” value (98.72 K, Crystal 2, Small (less than 1 g) adiabatic calorimetry) was 160.47 ± 1.2 J/K/mol. For the same compound, the “molar heat capacity at constant pressure” value (99.17 K, Crystal 1, Small (less than 1 g) adiabatic calorimetry) was 154.93 ± 1.1 J/K/mol.

— the NIST ThermoML archive (doi:10.1016/j.jct.2012.03.031)
